Assay results taken from US7250394B2, “Treatment of glial tumors with glutamate antagonists” (priority 2001, dated 2007).

Tests used:
C6Glu^+ cell implants = assay: C6Glu+ glioma implantation in striata of Wistar rats, tumor size 10 days after implantation; assay type: in vivo, rat
Experimental: Rats (male Wistar, 250–270 g) anesthetized with pentobarbital (50 mg/kg) were placed in a stereotactic frame and 1×10^4 C6 cells were injected at a depth of 6 mm in the right striata with a Hamilton syringe. Injection coordinates with regard to bregma were 0.5 mm posterior and 3.0 mm lateral. Fischer rats (170–200 g) were injected with 1×10^4 RG2 cells. In some experiments, the glioma cells were prelabeled with the cell tracker, CMFDA (2 μM, Molecular Probes, Eugene, Oreg.) (Lin et al., “Ga-Junction-Mediated Propagation and Amplification of Cell Injury,” Nature Neurosci., 1:494–500 (1998), which is hereby incorporated in its entirety). Ten days after implantation, the anesthetized rats were perfused with 4% paraformaldehyde in phosphate buffer. After post-fixation for 24 hours, the brains were sectioned into 50–500-μm slices by a vibratome (Kang et al., “AstrocyteMediated Potentiation of Inhibitory Synaptic Transmission,” Nature Neurosci., 1:682–692 (1998), which is hereby incorporated in its entirety). The slices were imaged using a Sony digital camera (DSC-S50) and tumor volume calculated using NIH Image software.
Based upon the above observations, it was investigated whether excitotoxic neuronal death accelerates tumor expansion. […]

RG2 glioma cells = assay: Proliferation of RG2 glioma cells in culture; assay type: cell-based, rat
RG2Glu^+ cell implants = assay: RG2Glu+ glioma implantation in Fischer rats, tumor volume; assay type: in vivo, rat; settings: 25 mg/kg twice daily i.p., 10 d
Experimental: Rats (male Wistar, 250–270 g) anesthetized with pentobarbital (50 mg/kg) were placed in a stereotactic frame and 1×10^4 C6 cells were injected at a depth of 6 mm in the right striata with a Hamilton syringe. Injection coordinates with regard to bregma were 0.5 mm posterior and 3.0 mm lateral. Fischer rats (170–200 g) were injected with 1×10^4 RG2 cells. In some experiments, the glioma cells were prelabeled with the cell tracker, CMFDA (2 μM, Molecular Probes, Eugene, Oreg.) (Lin et al., “Ga-Junction-Mediated Propagation and Amplification of Cell Injury,” Nature Neurosci., 1:494–500 (1998), which is hereby incorporated in its entirety). Ten days after implantation, the anesthetized rats were perfused with 4% paraformaldehyde in phosphate buffer. After post-fixation for 24 hours, the brains were sectioned into 50–500-μm slices by a vibratome (Kang et al., “AstrocyteMediated Potentiation of Inhibitory Synaptic Transmission,” Nature Neurosci., 1:682–692 (1998), which is hereby incorporated in its entirety). The slices were imaged using a Sony digital camera (DSC-S50) and tumor volume calculated using NIH Image software. […]

C6 cells [1] = assay: Proliferation of C6 glioma cells in culture; assay type: cell-based, rat
Experimental: (§1) Ten-day-old cortical neurons were loaded with the calcium indicator, fluo-3 AM (5 μM, 1 h), and the fluorescence signal was detected by confocal microscopy (MRC1000, BioRad, Richmond, Calif.) as described (Lin et al., “Ga-Junction-Mediated Propagation and Amplification of Cell Injury,” Nature Neurosci., 1:494–500 (1998); Zhang et al., “Tamoxifen-Induced Enhancement of Calcium Signaling in Glioma and MCF-7 Breast Cancer Cells,” Cancer Res., 60:5395–5400 (2000), which are hereby incorporated in their entirety). 100 μl conditioned medium from the C6 clones was added to the culture (initial media volume was 300 μl). Proliferation of the C6 subclones was determined by cell counting or by the Alamar blue assay (Biosource, Camarillo, Calif.) and cellular invasiveness evaluated using Matrigel-coated transwell inserts as described (Zhang et al., “Direct Gap Junction Communication Between Malignant Glioma Cells and Astrocytes,” Cancer Res., 59:1994–2003 (1999), which is hereby incorporated in its entirety).

[2] = 25 mg/kg i.p.; microdialysis; cited from earlier work
[3] = patients with Parkinson's Disease, dementia, and spasticity; cited from earlier work
C6 cells [4] = assay: Glutamate release from C6 subclones (bioluminescence assay); assay type: cell-based, rat
Experimental: Confluent cultures were washed twice and incubated in fresh culture medium. Samples of the supernatant were collected at 1, 3 and 6 hours. […] Glutamate release from freshly prepared brain slices was imaged by preparing 300-μm slices by vibratome 5 days after tumor implantation. The sections were prepared in artificial CSF as described (Kang et al., “Astrocyte-Mediated Potentiation of Inhibitory Synaptic Transmission,”Nature Neurosci., 1:683–692 (1998), which is hereby incorporated in its entirety). After 15 to 30 min. incubation in CSF, the slices were transferred to microscope stage and immersed in the bioluminescence mixture (1 ml) at room temperature. To modify the bioluminescence mixture to be tolerated by live tissue, glycerol was removed using Hank's buffered salt solution as the base. The luminescence was imaged by an intensified CCD camera (Hamamatsu, C2400) attached to a BX-50 microscope with a 50 mm camera lens (Olympus). The relative light production over the tumor versus normal brain tissue was quantified. Light emission higher than a background threshold was superimposed upon a bright-field image of the same section obtained immediately after luminescence recordings. The brain slices were fixed overnight in 4% paraformaldehyde and stained with cresylviolet.

C6 glioma cells = assay: [3H]glutamate uptake in C6 subclones; assay type: cell-based, rat; settings: 5 min
Experimental: Glutamate uptake was analyzed by mixing 0.4 μCi/ml L-[^3H]glutamate (specific activity 0.03 Ci/mmol) with 150 μM glutamate in a buffer containing […] NaCl, 1.5 mM K2HPO4, 2 MM MgCl2, 2 mM CaCl2, 10 mM HEPES and 10 mM glucose with pH 7.3 (ref 6). NaCl was replaced by choline chloride for sodium-free conditions. Cells were washed twice, then incubated in the uptake solution with various blockers for 5 min., followed by 3 washes with ice-cold buffer, and then dissolved in 0.3 N NaOH. The activity of [^3H]glutamate was detected with liquid scintillation counter (1209 Rackbeta, LKB Wallac, San Francisco, Calif.). Protein concentration was determined by using the DC protein assay kit from BioRad.

[5] = test system: TUNEL^+ neurons surrounding C6Glu^+ cell tumors; assay: TUNEL staining of degenerating neurons surrounding C6Glu+ tumors; assay type: in vivo, rat; settings: five-day-old tumors; P<0.001 one-way ANOVA
Text: Polyclonal antibodies against glutamate transporters were supplied by and used as described by Rothstein et al., “Localization of Neuronal and Glial Glutamate Transporters,” Neuron, 13:713–725 (1994), which is hereby incorporated in its entirety. Neuronal death was visualized with the TUNEL technique (Oncor, Gaithersburg), and counterstained with hematoxilin and eosin (H&E) (Lin et al., “Ga-Junction-Mediated Propagation and Amplification of Cell Injury,” Nature Neurosci., 1, 494–500 (1998), which is hereby incorporated in its entirety). […] TUNEL^+ neurons within a distance of 200 μm from the tumor border were counted by a blinded observer. […]
To test the possibility that elevation of extracellular glutamate triggers excitotoxic neuronal death in normal brain tissue invaded by C6Glu^+ tumor cells, TUNEL (terminal deoxynucleotidyl-transferase-mediated dUTP-blotin nick end-labeling) staining was used to identify degenerating neurons (Lin et al., “Ga-Junction-Mediated Propagation and Amplification of Cell Injury,” Nature Neurosci., 1, 494–500 (1998), which is hereby incorporated in its entirety). Five-day-old tumors were evaluated to minimize indirect injury resulting from the very large tumors in animals with C6Glu^+ cell implants. […]

[6] = test system: cultured cortical neurons; assay: Calcium measurement (fluo-3) in cortical neurons after conditioned medium from C6Glu+ cells; assay type: cell-based, rat; settings: 10 μM
Experimental: as §1
After transfer of conditioned medium from C6Glu^+ cells to cultured cortical neurons that had been first loaded with the calcium indicator fluo-3, there was a rapid increase in the relative emission of fluo-3, indicating increased cytosolic calcium levels (FIG. 1B). […]

cortical neurons = assay: Coculture of cortical neurons with C6Glu+ glioma aggregates, neuronal viability; assay type: cell-based, rat; settings: pretreatment; 24 h coculture (10 μM per FIG. 1C)
Experimental: Glioma cell aggregates were produced by plating 100,000 C6Glu^+ or C6Glu^−cells in plates with non-adhesive substrate (ultra low cluster 3473; Costar, Cambridge, Mass.). Twenty-four hours later, the glioma aggregates were loaded with calcein AM (green, 2 μM, excitation 488 nm) and transferred to neuronal cultures. Cortical neuronal cultures were preloaded with the cell tracker Sytox 62 (white, 0.1 μM, excitation 647 nm).
To study the direct cellular interactions, the glioma clones were cocultured with cortical neurons (Id.). Twenty-four hours after adding aggregates of C6Glu^− cells to established neuronal cultures, 86±2% of the neurons remained viable (FIGS. 1C–D). In comparison, only 14±1% of neurons survived in sister cultures after addition of C6Glu^+ cell aggregates (FIGS. 1C–D).

CC12CC3CC(C)(C1)CC(N)(C3)C2 [memantine]
growth of C6Glu+ tumors (C6Glu^+ cell implants; 10 d after implantation, P<0.001 (FIG. 6D)): effectively restricted the growth
proliferation of RG2 glioma cells (RG2 glioma cells; 100 μM or higher): significant reduction
proliferation of RG2 glioma cells (RG2 glioma cells; low concentrations): did not reduce
tumor volume smaller than vehicle-treated rats (RG2Glu^+ cell implants): 26%
proliferation of cultured C6Glu+ cells (C6 cells [1]; 100 μM or higher): significant reduction
proliferation of cultured C6Glu+ cells (C6 cells [1]; low concentrations): did not reduce
peak concentrations in the central nervous system [2]: 1 to 2 µM
side effects on prolonged administration [3]: few side effects

O=C(O)[C@@H]1CN[C@@H](C(=O)O)C1 (relative stereo) [trans-PDC, trans-pyrrolidine-2,4-dicarboxylate]
glutamate release from C6 cells (C6 cells [4]; 6-h period): not affected
uptake of [3H]glutamate in C6Glu+ cells (C6 glioma cells; 200 μM): not affected
[3H]glutamate uptake in C6Glu- cells (C6 glioma cells): significantly reduced
[3H]glutamate uptake in C6WT cells (C6 glioma cells): significantly reduced

N[C@@H](CSSC[C@H](N)C(=O)O)C(=O)O [cystine]
glutamate release from C6 cells (C6 cells [4]; addition of extracellular cystine, any of the three clones): no effect

C[C@]12N[C@H](Cc3ccccc31)c1ccccc12 [MK801, dizocilpine]
tumor size (C6Glu^+ cell implants; 1 mg/kg twice daily i.p., 10 days after injection of C6Glu+ cells, vehicle 106±19 mm^3, P<0.001): 54.9±11 mm^3
number of TUNEL+ neurons surrounding C6Glu+ cell tumors [5]: reduced
increase in fluo-3 emission (cytosolic calcium) in cortical neurons [6]: blocked
proliferation rate of C6 cells in vitro (C6 cells [1]; 10 or 100 μM per FIG. 4B): did not reduce
neuronal loss in coculture with C6Glu+ cell aggregates (cortical neurons): attenuated the neuronal loss

N[C@H](C(=O)O)c1ccc(C(=O)O)cc1 [S-4CPG, (s)-4-carboxyphenylglycine]
glutamate release from C6 cells (C6 cells [4]; 100 μM, any of the three clones): no effect
